Data taken from patent publication US5041436A, “1-arylsulphonyl-2-piperidinone derivatives, process and intermediates for the preparation thereof, their application as antispasmodics and compositions containing them” (Roussel Uclaf, priority 1989, dated 1991).
Read-outs that look alike come from different tables or passages of the source.

How the values were obtained:
[1] = tested on: isolated guinea pig ileum; assay: Agonist action on isolated guinea pig ileum; details: negative logarithm of the dose which produces 50% of maximum effect
Method: (§1) The interaction of the compounds with different receptors was assessed on isolated guinea pig ileum according to the following method.
(§2) Guinea pig ileum segments measuring 2.5-3 cm were washed and immediately suspended in a bath containing 10 ml of Tyrode's solution at 37° C. aerated with a mixture of oxygen (95%) and carbon dioxide (5%). After a stabilization period of at least 30 minutes, the contractions were recorded, maintaining the preparation under constant tension of 1 g using a gauge connected to a polygraph. The agonist action was assessed by leaving the compound in contact with the isolated tissue for a period necessary for expressing the maximal contraction; the preparation was then washed with Tyrode's solution. The next dose was added to the bath only after the preparation had returned to its base line. As a reference product, arecoline was employed. The antagonist action was assessed on contractions induced by acetyl choline (1×10^-6 M), histamine (1×10^-5 M) and barium chloride (2×10^-4 M). Atropine, diphenhydramine and papaverine were emplohyed as reference products. The contact time before adding the agonist was one minute.
(§3) For each compound, the dose-response curves are obtained with 4 to 6 different concentrations and 3 to 5 independent tests. The agonist activity is expressed by pD2 (negative logarithm of the dose which produces 50% of maximum effect). The antagonist activity is expressed by IC50 (concentration inhibiting 50% of the maximal response).

[2] = tested on: isolated guinea pig ileum, contractions induced by acetyl choline; assay: Antagonist action on contractions induced by acetyl choline, isolated guinea pig ileum; details: acetyl choline 1×10^-6 M; contact time one minute; 37° C.; read-out: Antagonist to different agents (IC50), ACh
Method: as §1, §2, §3

[3] = tested on: cholinomimetic effects induced by carbachol; assay: In vivo anticholinergic action: inhibition of cholinomimetic effects induced by carbachol in mice; set-up: species or system CD1 male mice; details: Mus musculus, ip; for ED (1 degree C): rectal temperature, read-out: Body temperature: dose increasing by 1° C. the hypothermic effect induced by the cholinergic agent
Method: The anticholinergic activity of the compounds was determined by assessing the capacity to inhibit the cholinomimetic effects induced by carbachol. Atropine sulphate was employed as a reference product.
CD1 male mice weighing 25 to 30 g were used. They were distributed in groups of 6 animals and treated intraperitoneally with scalar doses of the products or 0.25% Methocel for the controls. 12 animals were used for each dose. 30 minutes after administration of the compounds, the mice were injected subcutaneously with 1 mg/kg of carbachol dissolved in physiological saline.
Each animal was examined 30 minutes after the injection of carbachol to assess the presence of diarrhoea, salivation and eye watering; in addition, the body temperature was measured by means of a thermocouple inserted 1.5 cm into the rectum.
For each compound, we have determined and recorded in the following table the dose capable of inhibiting the appearance of the carbachol-induced cholinometric symptoms in 50% of the animals, and of increasing by 1° C. the hypothermic effect induced by the cholinergic agent.

Muscarinic receptor 1 = target: T1, Muscarinic receptor 1 (Rattus norvegicus, UniProt P08482); assay: Binding to muscarinic receptor 1 ([^3 H]pirenzepine), rat cortex; details: for IC50: 0.25 nM [^3 H]pirenzepine, 60 minutes at 25° C., pH 7.4, rat cortex, read-out: Affinity for M1 muscarinic receptors, [^3 H]pirenzepine, IC50; for affinity for the muscarinic receptor (in words): summary of Table 1
T1 construct: cortices removed from the brains of male rats; from tissue; host or cells: rat brain cortex homogenate
T1 sequence (P08482 1-460): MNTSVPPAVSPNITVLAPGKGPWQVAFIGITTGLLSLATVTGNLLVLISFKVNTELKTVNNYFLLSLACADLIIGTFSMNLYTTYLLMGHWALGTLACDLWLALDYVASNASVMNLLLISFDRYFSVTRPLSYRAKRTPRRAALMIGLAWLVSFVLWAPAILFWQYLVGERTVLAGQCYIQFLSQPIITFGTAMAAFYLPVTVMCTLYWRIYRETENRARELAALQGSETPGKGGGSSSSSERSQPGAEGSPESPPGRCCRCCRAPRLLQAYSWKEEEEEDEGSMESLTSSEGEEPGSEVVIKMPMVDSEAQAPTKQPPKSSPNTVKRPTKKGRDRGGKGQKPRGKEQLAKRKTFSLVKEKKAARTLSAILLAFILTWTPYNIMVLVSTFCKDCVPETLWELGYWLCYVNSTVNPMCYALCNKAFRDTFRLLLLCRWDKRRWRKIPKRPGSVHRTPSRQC
Method: (§4) 1) Binding to different brain receptors.
Preparation of this is carried out from cortices removed from the brains of male rats weighing 150 to 200 g (Iffa Credo), ground in a Polytron in a 10 mM Na/K buffer pH 7.4. After incubation (0.5 ml aliquots of homogenate) for 60 minutes at 25° C. in the presence of 0.25 nM [^3 H]pirenzepine, either alone, or with the test product, or with an excess of 10^-5 M pirenzepine (to determine the non-specifically bound radioactivity), the incubates are cooled and filtered.
The filtration is performed on Whatman GF/C filters prewashed in a 0.05% strength solution of polyethylenimine. The filters are rinsed with 3×5 ml of 10 mM Na/K phosphate buffer pH 7.4 and the measurements are then performed by liquid scintillation.
(§5) The results are expressed as an IC50 (concentration needed to inhibit by 50% the specifically bound radioactivity).

histamine receptors = assay: Binding to other brain receptors: histamine; details: negligible affinity
Source text: as §4

[4] = tested on: isolated guinea pig ileum, contractions induced by barium chloride; assay: Antagonist action on contractions induced by barium chloride, isolated guinea pig ileum; details: barium chloride 2×10^-4 M; contact time one minute; 37° C.; read-out: Antagonist to different agents (IC50), BaCl2
Method: as §1, §2, §3

adrenoreceptors beta2 = target: T2, adrenoreceptors beta2 (Homo sapiens, UniProt P07550); assay: Binding to other brain receptors: adrenoreceptor beta2; details: negligible affinity
T2 construct: from tissue
Source text: as §4

dopamine receptors = assay: Binding to other brain receptors: dopamine; details: negligible affinity
Source text: as §4

[5] = target: benzodiazepines receptors; assay: Binding to other brain receptors: benzodiazepines; details: negligible affinity
Source text: as §4

adrenoreceptors beta1 = target: T3, adrenoreceptors beta1 (Homo sapiens, UniProt P08588); assay: Binding to other brain receptors: adrenoreceptor beta1; details: negligible affinity
T3 construct: from tissue
Source text: as §4

opiate receptors mu = target: T4, opiate receptors mu (Homo sapiens, UniProt P35372); assay: Binding to other brain receptors: opiate mu; details: negligible affinity
T4 construct: from tissue
Source text: as §4

[6] = tested on: isolated guinea pig ileum, contractions induced by histamine; assay: Antagonist action on contractions induced by histamine, isolated guinea pig ileum; details: histamine 1×10^-5 M; contact time one minute; 37° C.; read-out: Antagonist to different agents (IC50), Histam.
Method: as §1
as §2, with “Atropine, diphenhydramine and papaverine were emplohyed as reference products.” left out
as §3

[7] = target: serotonin 5-HT1 receptors; assay: Binding to other brain receptors: serotonin 5-HT1; details: negligible affinity
Source text: as §4

GABA receptors = assay: Binding to other brain receptors: GABA; details: negligible affinity
Source text: as §4

adrenoreceptors alpha2 = assay: Binding to other brain receptors: adrenoreceptor alpha2; details: negligible affinity
Source text: as §4

adrenoreceptors alpha1 = assay: Binding to other brain receptors: adrenoreceptor alpha1; details: negligible affinity
Source text: as §4

Muscarinic receptor 2 = assay: Binding to muscarinic receptor 2 ([^3 H]quinuclidinyl benzylate), rat brain; details: 0.3 nM [^3 H]quinuclidinyl benzylate, 60 minutes at 25° C., pH 7.5, rat brain; read-out: Affinity for M2 muscarinic receptors, [^3 H]quinuclidinyl benzylate, IC50
Method: as §4
The preparation is performed from brains of male rats weighing 150 to 200 g (Iffa Credo).
The brains are ground (Teflon-glass) in 0.32M sucrose solution. The homogenate is centrifuged for 10 minutes at 1,000 g (0°-4° C.)
The supernatant obtained is collected and centrifuged at 30,000 g for 15 minutes (0°-4° C.).
The regulus is resuspended in 50 mM Tris buffer pH 7.5 and the new homogenate is centrifuged again at 30,000 g for 15 minutes (0°-4° C.).
After removal of the supernatant, the regulus may be used immediately or stored for up to 1 month at -30° C.
For an experiment, the regulus are first thawed, if necessary, at room temperature and resuspended using a Dounce in 50 mM Tris buffer pH 7.5. 2 ml aliquots are incubated for 60 minutes at 25° C. in the presence of 0.3 nM [^3 H]quinuclidinyl benzylate, either alone, or with the test product, or with 10^-5 M benzatropine to determine the non-specifically bound radioactivity.
At the end of the incubation period, the incubate tubes are cooled to 4° C. and filtered rapidly on Whatman GF/C filters. The filters are rinsed with 3×5 ml of […] Tris buffer pH 7.5 and the measurements are then performed by liquid scintillation (Henry I. Yamamura, Solomon H. Snyder, Proc. Nat. Acad. Sc. (1974) 71, No. 5, 1725-1729).
as §5

[8] = target: T5, serotonin 5-HT2 receptors (Homo sapiens, UniProt P28223); assay: Binding to other brain receptors: serotonin 5-HT2; details: negligible affinity
T5 construct: from tissue
Source text: as §4

opiate receptors kappa = target: T6, opiate receptors kappa (Homo sapiens, UniProt P41145); assay: Binding to other brain receptors: opiate kappa; details: negligible affinity
T6 construct: from tissue
Source text: as §4

[9] = mice, i.p. 30 minutes before carbachol 1 mg/kg s.c., read-out: Dose inhibiting carbachol-induced diarrhoea in 50% of the animals
[10] = mice, i.p. 30 minutes before carbachol 1 mg/kg s.c., read-out: Dose inhibiting carbachol-induced eye watering in 50% of the animals
[11] = mice, i.p. 30 minutes before carbachol 1 mg/kg s.c., read-out: Dose inhibiting carbachol-induced salivation in 50% of the animals
[12] = mice, i.p. 30 minutes before carbachol 1 mg/kg s.c.

T2 sequence (P07550 whole entry): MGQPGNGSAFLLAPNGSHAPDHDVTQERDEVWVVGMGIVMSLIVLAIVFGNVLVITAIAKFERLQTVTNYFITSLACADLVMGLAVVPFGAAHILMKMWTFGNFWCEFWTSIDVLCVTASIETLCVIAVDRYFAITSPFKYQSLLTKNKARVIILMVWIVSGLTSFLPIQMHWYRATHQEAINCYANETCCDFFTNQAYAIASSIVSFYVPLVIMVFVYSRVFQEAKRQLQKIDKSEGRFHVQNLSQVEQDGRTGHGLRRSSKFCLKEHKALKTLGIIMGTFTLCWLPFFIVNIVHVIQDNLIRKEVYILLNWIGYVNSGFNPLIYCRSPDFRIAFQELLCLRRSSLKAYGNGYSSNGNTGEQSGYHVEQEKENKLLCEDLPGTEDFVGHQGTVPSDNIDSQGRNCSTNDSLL
T5 sequence (P28223 whole entry): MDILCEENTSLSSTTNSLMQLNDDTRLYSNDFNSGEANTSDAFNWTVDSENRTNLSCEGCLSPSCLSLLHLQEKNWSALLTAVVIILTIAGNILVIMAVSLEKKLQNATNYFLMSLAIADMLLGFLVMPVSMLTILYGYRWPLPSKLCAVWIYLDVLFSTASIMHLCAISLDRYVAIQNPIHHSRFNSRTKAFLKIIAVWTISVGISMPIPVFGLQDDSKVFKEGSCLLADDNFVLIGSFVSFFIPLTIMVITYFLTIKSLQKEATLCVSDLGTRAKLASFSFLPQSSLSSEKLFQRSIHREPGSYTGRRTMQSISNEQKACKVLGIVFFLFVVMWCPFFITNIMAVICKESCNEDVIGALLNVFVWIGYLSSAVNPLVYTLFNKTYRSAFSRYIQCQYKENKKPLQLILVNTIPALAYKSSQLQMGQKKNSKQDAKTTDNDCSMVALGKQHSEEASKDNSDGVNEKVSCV
T6 sequence (P41145 whole entry): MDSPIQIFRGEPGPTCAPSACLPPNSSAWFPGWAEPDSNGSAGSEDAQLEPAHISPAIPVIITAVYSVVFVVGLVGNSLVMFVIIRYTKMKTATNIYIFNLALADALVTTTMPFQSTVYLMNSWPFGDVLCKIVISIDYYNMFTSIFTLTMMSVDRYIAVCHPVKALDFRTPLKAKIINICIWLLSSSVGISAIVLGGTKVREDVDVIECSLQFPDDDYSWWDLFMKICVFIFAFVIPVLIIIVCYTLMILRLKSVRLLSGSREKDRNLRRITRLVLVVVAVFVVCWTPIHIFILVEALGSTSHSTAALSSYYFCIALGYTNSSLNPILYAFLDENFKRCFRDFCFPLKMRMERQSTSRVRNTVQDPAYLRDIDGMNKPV
T4 sequence (P35372 whole entry): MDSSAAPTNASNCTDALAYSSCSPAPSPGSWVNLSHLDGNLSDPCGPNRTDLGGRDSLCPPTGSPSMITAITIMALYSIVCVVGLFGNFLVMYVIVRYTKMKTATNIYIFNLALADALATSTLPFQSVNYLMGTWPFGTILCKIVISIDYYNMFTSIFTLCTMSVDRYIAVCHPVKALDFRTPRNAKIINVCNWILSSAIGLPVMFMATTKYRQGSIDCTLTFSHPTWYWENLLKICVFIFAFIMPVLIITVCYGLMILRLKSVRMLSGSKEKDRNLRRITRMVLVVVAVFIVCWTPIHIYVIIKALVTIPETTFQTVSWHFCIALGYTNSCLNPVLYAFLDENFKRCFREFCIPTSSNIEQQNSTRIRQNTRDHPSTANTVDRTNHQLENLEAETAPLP
T3 sequence (P08588 whole entry): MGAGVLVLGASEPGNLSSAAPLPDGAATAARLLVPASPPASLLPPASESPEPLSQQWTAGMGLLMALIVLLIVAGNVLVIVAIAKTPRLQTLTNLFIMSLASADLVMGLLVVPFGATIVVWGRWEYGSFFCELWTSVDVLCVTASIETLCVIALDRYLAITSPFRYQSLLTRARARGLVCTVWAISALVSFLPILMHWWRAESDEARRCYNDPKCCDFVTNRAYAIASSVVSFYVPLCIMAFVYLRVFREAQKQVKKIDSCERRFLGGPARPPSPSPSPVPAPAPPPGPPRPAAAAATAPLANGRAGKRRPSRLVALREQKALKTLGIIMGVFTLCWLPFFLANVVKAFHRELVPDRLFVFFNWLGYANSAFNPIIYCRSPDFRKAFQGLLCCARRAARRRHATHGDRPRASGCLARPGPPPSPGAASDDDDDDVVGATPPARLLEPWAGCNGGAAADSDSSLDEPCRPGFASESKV

Row | SMILES | Agonist action pD2 [1] | IC50 [2] [µM] | IC50 (Muscarinic receptor 1) [µM] | affinity for the muscarinic receptor (in words) (Muscarinic receptor 1) | IC50 (histamine receptors) [µM] | IC50 [4] [µM] | IC50 (adrenoreceptors beta2) [µM] | IC50 (dopamine receptors) [µM] | IC50 [5] [µM] | IC50 (adrenoreceptors beta1) [µM] | IC50 (opiate receptors mu) [µM] | IC50 [6] [µM] | IC50 [7] [µM] | IC50 (GABA receptors) [µM] | IC50 (adrenoreceptors alpha2) [µM] | IC50 (adrenoreceptors alpha1) [µM] | IC50 (Muscarinic receptor 2) [µM] | IC50 [8] [µM] | ED50 [3, 9] [mg/kg] | ED50 [3, 10] [mg/kg] | further results
1 | COC(=O)C1=CCCN(C)C1 [Arecoline, arecoline, reference compound] | 6.68 |  |  |  |  |  |  |  |  |  |  |  |  |  |  |  |  |  |  |  | 
2 | CN1[C@@H]2CC[C@H]1C[C@@H](OC(=O)C(CO)c1ccccc1)C2 (some centres unmarked) [Atropine, reference compound] |  | 0.0095 |  |  |  |  |  |  |  |  |  |  |  |  |  |  |  |  |  |  | ED50 ([3]; read-out: Dose inhibiting carbachol-induced diarrhoea in 50% of the animals): 0.04 mg/kg; ED50 ([3]; read-out: Dose inhibiting carbachol-induced eye watering in 50% of the animals): 0.05 mg/kg; ED50 ([3]; read-out: Dose inhibiting carbachol-induced salivation in 50% of the animals): 0.06 mg/kg
3 | CCN(CC)c1ccc(S(=O)(=O)N2CCCCC2=O)cc1 [Example 2, 1-[4-(Diethylamino)benzenesulphonyl]-2-piperidinone] | < 5 | 0.93 | 0.314 | noteworthy advantageous affinity for the muscarinic receptor, and mainly for the M1 type receptor | 5 to 10 | > 10 | 5 to 10 | 5 to 10 | 5 to 10 | 5 to 10 | 5 to 10 | > 10 | 5 to 10 | 5 to 10 | 5 to 10 | 5 to 10 | 4.6 | 5 to 10 | 5 | > 50 | ED50 [3, 11]: > 50 mg/kg; ED (1 degree C) [3, 12]: > 50 mg/kg; IC50 (opiate receptors kappa): 5 to 10 µM
4 | O=C1CCCCN1S(=O)(=O)c1ccc(N2CCCCC2)cc1 [Example 4, 1-[4-(1-Piperidinyl)benzenesulphonyl] -2-piperidinone] | < 5 | 1.5 | 0.128 | noteworthy advantageous affinity for the muscarinic receptor, and mainly for the M1 type receptor | 5 to 10 | > 10 | 5 to 10 | 5 to 10 | 5 to 10 | 5 to 10 | 5 to 10 | > 10 | 5 to 10 | 5 to 10 | 5 to 10 | 5 to 10 | 2.24 | 5 to 10 | 6 | > 50 | ED50 [3, 11]: > 50 mg/kg; ED (1 degree C) [3, 12]: > 50 mg/kg; IC50 (opiate receptors kappa): 5 to 10 µM
5 | O=C1CCCCN1S(=O)(=O)c1ccc(N2CCCCCC2)cc1 [Example 5, 1-[4-(1-Hexahydroazepinyl)benzenesulphonyl]-2-piperidinone] | < 5 | 0.27 | 0.049 | noteworthy advantageous affinity for the muscarinic receptor, and mainly for the M1 type receptor | 5 to 10 | > 10 | 5 to 10 | 5 to 10 | 5 to 10 | 5 to 10 | 5 to 10 | > 10 | 5 to 10 | 5 to 10 | 5 to 10 | 5 to 10 | 0.66 | 5 to 10 | 2 | > 50 | ED (1 degree C) [3, 12]: 50 mg/kg; IC50 (opiate receptors kappa): 5 to 10 µM
6 | COc1ccc(Cc2nccc3cc(OC)c(OC)cc23)cc1OC [Papaverine, papaverine, reference compound] |  |  |  |  |  | 45 |  |  |  |  |  |  |  |  |  |  |  |  |  |  | 
